These are literature values, as cited in patent publication US11267839B2, “Crystalline forms of LNT” (GLYCOM A/S, priority 2015, dated 2022).

For this series the following is noted: prior-art crystalline LNT from aqueous ethanol, after drying.

For `CC(=O)N[C@H]1[C@H](O[C@H]2[C@@H](O)[C@@H](CO)O[C@@H](O[C@H]3[C@H](O)[C@@H](O)C(O)O[C@@H]3CO)[C@@H]2O)O[C@H](CO)[C@@H](O)[C@@H]1O[C@@H]1O[C@H](CO)[C@H](O)[C@H](O)[C@H]1O` (stereo partly shown) [LNT, Galpβ1-3GlcNAcpβ1-3Galpβ1-4Glc], the “weight taken back when stored in air (hygroscopic)” value is “around 8 % of its weight”.
